Test [1] deals with T1, human renin (Homo sapiens, UniProt P00797).
T1 sequence (P00797 67-406): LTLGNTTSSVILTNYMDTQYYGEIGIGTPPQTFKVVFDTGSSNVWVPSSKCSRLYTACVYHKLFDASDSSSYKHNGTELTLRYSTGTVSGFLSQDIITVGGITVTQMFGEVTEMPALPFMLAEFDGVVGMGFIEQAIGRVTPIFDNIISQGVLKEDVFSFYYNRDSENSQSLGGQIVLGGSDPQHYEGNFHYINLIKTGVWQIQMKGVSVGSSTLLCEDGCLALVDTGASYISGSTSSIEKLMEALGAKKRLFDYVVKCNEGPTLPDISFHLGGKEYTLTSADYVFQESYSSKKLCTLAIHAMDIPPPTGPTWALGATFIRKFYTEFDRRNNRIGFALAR
To be noted: 106th Annual Meeting of the Pharmaceutical Society of Japan (April, 1986)/Meeting of Japanese Circulation Journal (March, 1986); cited from earlier work.

The target of test [2] is T1, human renin. As to the kind of experiment: Human renin-sheep renin substrate reaction system in vitro. Type of test: biochemical. To be noted: pH 7.4, 15 minutes at 37° C., read-out: IC50 (molar concentration). On the procedure: Human resin-sheep resin substrate reaction system in vitro To a mixture containing 200 μl of a 125 mM pyrophosphate buffer (pH 7.4), 25 μl of a 20 mM aqueous solution of […] as an angiotensin converting enzyme inhibitor, 50 μl of semipurified sheep renin substrate ([…]), 50 μl of dimethyl sulfoxide solution of an amino acid derivative of the present invention (or 50 μl of dimethyl sulfoxide as a control) and 150 μl of deionized water was added 25 μl of purified human renin (20-30 ng angiotensin I/ml/hr). The mixture was incubated for 15 minutes on a water bath at 37° C., and the reaction mixture was allowed to stand for 5 minutes on a water bath at 100° C. to stop the reaction. After cooling, 200 μl of the solution were taken up and the amount of angiotensin I produced by the addition of renin was determined by radioimmunoassay. The inhibitory effect was calculated by the following equation. [formula] The molar concentration which produced 50% inhibition (IC50) was calculated from the inhibition value obtained, and the results are shown below.

Test [3] addresses T2, renin in human high renin plasma (Homo sapiens, UniProt P00797).
T2 construct: 500 μl of human high renin plasma; from tissue; host or cells: human high renin plasma
T2 sequence (P00797 67-406): T1 sequence (P00797 67-406)
In words: Renin inhibitory effect in a human high renin plasma. Type of test: biochemical. Particulars: pH 7.4, 30 minutes at 37° C., read-out: IC50 (molar concentration). On the procedure: Renin inhibitory effect in a human high renin plasma A mixture of 350 μl of a 0.5M phosphate buffer containing 14 mM EDTA 2Na and a 0.3% neomycin sulfate, which was adjusted to the pH of 7.4, 50 μl of a 20 mM an aqueous solution of […] as an angiotensin converting enzyme inhibitor and 100 μl of dimethyl sulfoxide solution containing an amino acid compound of the present invention was added to 500 μl of human high renin plasma. […] was incubated for 30 minutes at 37° C. in a water bath. A 200 μl sample was withdrawn from the incubated mixture, chilled immediately in an ice bath, and the amount of angiotensin I produced was determined by radioimmunoassay, and remaining of the mixture (200 μ[…] 4° C. in an ice bath. The amount of angiotensin I produced in the incubated mixture at 4° C. in an ice bath was determined by radioimmunoassay. As a control, the same procedure as above was carried out by using 100 μl of dimethyl sulfoxide alone in place of the 100 μl of dimethyl sulfoxide solution containing an amino acid compound of the present invention. The inhibitory effect was calculated by the following equation. [formula] The molar concentration which produced 50% inhibition (IC50) was calculated from the inhibition value obtained, and the results are shown below.

Another test concerns common marmoset. In words: Hypotensive effect in marmoset (furosemide-induced high renin state). Type of test: in vivo. Particulars: oral. On the procedure: The experiment was carried out by using common marmoset as described in K. G. Hofbauer et al., Clinical and Experimental hypertension, Vol. A5, Nos. 7 & 8 (1983), pages 1237-1247.
Furosemide was orally administered three times to common marmoset at 15 mg per kilogram per day every other day to create a high renin state. Blood pressure of conscious marmoset was measured 2 days after the last administration of furosemide.
Measurement of blood pressure
Two conscious male marmosets weighing 365-380 g were fixed. Mean blood pressure at tail artery was recorded on pretismograph instument. The amino acid compound of the present invention, administered orally using a catheter.

[4] abbreviates: 100 mg/kg, n = 2, 1 hour after administration, control 94.0 in (a), 90.9 in (c).
Where [5] appears, read: 100 mg/kg, n = 2, 2 hours after administration, control 94.0 in (a), 90.9 in (c).
[6] abbreviates: 100 mg/kg, n = 2, 3 hours after administration, control 94.0 in (a), 90.9 in (c).
Where [7] appears, read: 100 mg/kg, n = 2, 5 hours after administration, control 94.0 in (a), 90.9 in (c).
Setting [8] is: 100 mg/kg, n = 2, 7 hours after administration, control 94.0 in (a), 90.9 in (c).

In the case of `CC(C)CC(NC(=O)[C@H](Cc1c[nH]cn1)NC(=O)C(CC(=O)N1CCOCC1)Cc1cccc2ccccc12)C(O)C(=O)OC(C)C` (stereo partly shown), the “human renin inhibitory activity” value at human renin [1] is on record as “human renin inhibitory activity”.
As for `COC(=O)CN(C)C(=O)CC(Cc1cccc2ccccc12)C(=O)N[C@@H](Cc1c[nH]cn1)C(=O)N[C@@H](CC(C)C)C(O)C(=O)OC(C)C` (mixture of isomers) [Isopropyl(2RS,3S)-3-{N-[2-(1-naphthylmethyl)-3-(N-methyl-N-methoxycarbonylmethylcarbamoyl)propionyl]-L-histidyl}amino-2-hydroxy-5-methylhexanoate], the IC50 was 17 nM at human renin [2] and 20 nM in test [3]. The Blood pressure in the test on common marmoset (30 mg/kg, n = 2, 1 hour after administration, control 95.4) turned out to be 62.1 mmHg; in the test on common marmoset (30 mg/kg, n = 2, 2 hours after administration, control 95.4), 59.8 mmHg; in the test with common marmoset (30 mg/kg, n = 2, 3 hours after administration, control 95.4), 66.5 mmHg; in the test on common marmoset (30 mg/kg, n = 2, 5 hours after administration, control 95.4), 84.9 mmHg; in the test on common marmoset (30 mg/kg, n = 2, 7 hours after administration, control 95.4), 88.3 mmHg.
As for `COC(=O)[C@@H]1CCCN1C(=O)CC(Cc1cccc2ccccc12)C(=O)N[C@@H](Cc1c[nH]cn1)C(=O)N[C@@H](CC(C)C)C(O)C(=O)OC(C)C` (stereo partly drawn) [Isopropyl(2RS,3S)-3-{N-[2-(1-naphthylmethyl)-3-(2S-methoxycarbonylpyrrolidinocarbonyl)propionyl]-L-histidyl}-amino-2-hydroxy-5-methylhexanoate], the figures for the IC50 (at human renin [2]; in test [3]) were 52 nM and 50 nM, respectively. Moreover, the Blood pressure in the test on common marmoset (setting [4]) was found to be 77.5 mmHg; in the test with common marmoset (setting [5]) it was 74.0 mmHg; with common marmoset (setting [6]), 70.0 mmHg; in the test on common marmoset (setting [7]), 92.2 mmHg; with common marmoset (setting [8]) it was 101.5 mmHg.
On to `COC(=O)[C@@H]1CCCN1C(=O)CC(Cc1cccc2ccccc12)C(=O)N[C@@H](Cc1c[nH]cn1)C(=O)N[C@@H](CC(C)C)[C@@H](O)CC(=O)NCCC(C)C` (stereo partly drawn) [N-[2-(1-Naphthylmethyl)-3-(2S-methoxycarbonylpyrrolidinocarbonyl)propionyl]-L-histidyl-statylisoamylamide], for which the IC50 on human renin [2] stood at 120 nM; in test [3] it was 220 nM.
Take `CC(C)C[C@H](NC(=O)[C@H](Cc1c[nH]cn1)NC(=O)C(CC(=O)N1CCC[C@H]1CO)Cc1cccc2ccccc12)C(O)C(=O)OC(C)C` (stereo partly drawn) [Isopropyl(2RS,3S)-3-{N-[2-(1-naphthylmethyl)-3-(2S-hydroxymethylpyrrolidinocarbonyl)propionyl]-L-histidyl}amino-2-hydroxy-5-methylhexanoate]: the values for the IC50 (at human renin [2]; in test [3]) were 23 nM and 140 nM, respectively.
Regarding `COC(=O)CN(C)C(=O)CC(Cc1cccc2ccccc12)C(=O)N[C@@H](Cc1c[nH]cn1)C(=O)N[C@@H](CC(C)C)C(O)C(=O)NCCC(C)C` (mixture of isomers) [(2RS,3S)-3-{N-[2-(1-Naphthylmethyl)-3-(N-methyl-N-methoxycarbonylmethylcarbamoyl)propionyl]-L-histidyl}amino-2-hydroxy-5-methylhexanoylisoamylamide], the figures for the IC50 (on human renin [2]; in test [3]) were 23 nM and 339 nM, respectively.
`COC(=O)CC(Cc1cccc2ccccc12)C(=O)N[C@@H](Cc1c[nH]cn1)C(=O)N[C@@H](CC(C)C)C(O)C(=O)OC(C)C` (mixture of isomers) [Isopropyl (2RS,3S)-3-[3-(methoxycarbonyl)-2-(1-naphthylmethyl)propionyl-L-histidyl]amino-2-hydroxy-5-methylhexanoate]: the IC50 at human renin [2] turned out to be 25 nM; in test [3], 56 nM. For the same molecule, the Blood pressure was found to be 78.6 mmHg with common marmoset (setting [4]); 76.9 mmHg in the test with common marmoset (setting [5]); 69.4 mmHg in the test on common marmoset (setting [6]); 76.0 mmHg in the test on common marmoset (setting [7]); 77.8 mmHg in the test on common marmoset (setting [8]); 85.3 mmHg in the test on common marmoset (100 mg/kg, n = 2, 9 hours after administration, control 90.9 in (c)).
`COC(=O)CC(Cc1cccc2ccccc12)C(=O)N[C@@H](Cc1c[nH]cn1)C(=O)N[C@@H](CC(C)C)C(O)C(=O)NCCC(C)C` (mixture of isomers) [(2RS,3S)-3-[3-Methoxycarbonyl-2-(1-naphthylmethyl)propionyl-L-histidyl]amino-2-hydroxy-5-methylhexanoylisoamylamide]: the IC50 at human renin [2] stood at 220 nM; in test [3] it was 690 nM.

Values taken from patent US4857650A, “Novel renin inhibitory amino acid derivatives” (Kissei Pharmaceutical Co., Ltd., priority 1985, dated 1989).
